Reference: US5288709A, “Erythromycin derivatives” (priority 1991, dated 1994)
In brackets after ≈: the same amount, converted by molar mass. Read-outs that look alike come from different tables or passages of the source.

Assays:
Assay in all cases: In-vitro antimicrobial activity primary screen (agar dilution MIC)
Format in all cases: cell-based
[1] = test system: Staphylococcus aureus CMX 553; settings: Staphylococcus aureus, CMX553, 24 h, BHI agar, 20-24 h, read-out: MIC
Outline: (§1)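 Agar dilution in Brain Heart Infusion agar with twelve successive compound dilutions; plates inoculated with 1:100 diluted cultures by replicator and incubated 20-24 h at 35-37 °C. MIC is the lowest concentration giving no growth, slight haze or sparse isolated colonies versus compound-free control; erythromycin A plate run as reference.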

[2] = test system: Acinetobacter SP CMX 669
Outline: (§2)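 Each strain was applied with a Steers replicator block to agar plates containing graded test compound, using 1:100 inocula, or 1:10 where growth was slow, as with Streptococcus. Plates were incubated for 20-24 hours at 35-37° C. A reference antibiotic of the same class was run alongside.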

[3] = test system: Staphylococcus epidermidis 3519; settings: BHI agar, 20-24 h, read-out: MIC
Outline: as §2

[4] = test system: Pseudomonas cepacia 2961; settings: BHI agar, 20-24 h
Outline: as §2

[5] = test system: Staphylococcus aureus A5177; settings: Staphylococcus aureus, A5177, 24 h
Outline: as §2

[6] = test system: Providencia stuartii CMX 640
Outline: as §2

[7] = test system: Escherichia coli JUHL; settings: Escherichia coli JUHL, BHI agar, 20-24 h
Outline: as §2

[8] = test system: Streptococcus pyrogenes EES61; settings: BHI agar, 20-24 h, read-out: MIC
Outline: as §2

[9] = test system: Enterobacter aerogenes ATCC 13048; settings: Klebsiella aerogenes, Enterobacter aerogenes ATCC 13048, BHI agar, 20-24 h
Outline: as §2

[10] = test system: Micrococcus luteus ATCC 9341; settings: 20-24 h
Outline: as §2

[11] = test system: Pseudomonas aeruginosa BMH10; settings: BHI agar, 20-24 h
Outline: as §2

[12] = test system: Staphylococcus aureus 45 RAR2; settings: Staphylococcus aureus, 45RAR2, 24 h, BHI agar, 20-24 h
Outline: as §2

[13] = test system: Pseudomonas aeruginosa A5007
Outline: as §2

[14] = test system: Pseudomonas aeruginosa K799/61
Outline: as §2

[15] = test system: Escherichia coli DC-2; settings: Escherichia coli DC-2, BHI agar, 20-24 h
Outline: as §2

[16] = test system: Staphylococcus aureus 45; settings: BHI agar, 20-24 h
Outline: as §2

[17] = test system: Escherichia coli H560
Outline: as §2

[18] = test system: Enterococcus faecium ATCC 8043
Outline: as §2

[19] = test system: Micrococcus luteus ATCC 4698; settings: Micrococcus luteus, ATCC4698, 24 h, BHI agar, 20-24 h
Outline: as §2

[20] = test system: Streptococcus pyrogenes 2548 INDUC; settings: BHI agar, 20-24 h
Outline: as §2

[21] = test system: Pseudomonas aeruginosa K799/WT; settings: Pseudomonas aeruginosa, K799/WT, 24 h
Outline: as §2

[22] = test system: Staphylococcus aureus ATCC 6538P; settings: Staphylococcus aureus, ATCC6538P, 24 h, BHI agar, 20-24 h
Outline: as §2

[23] = test system: Streptococcus bovis A5169; settings: Streptococcus equinus, A5169, 24 h, BHI agar, 20-24 h
Outline: as §2

[24] = test system: Streptococcus agalactiae CMX 508; settings: Streptococcus agalactiae, CMX508, 24 h, BHI agar, 20-24 h
Outline: as §2

[25] = test system: Escherichia coli SS; settings: Escherichia coli, 24 h, BHI agar, 20-24 h
Outline: as §2

[26] = test system: Staphylococcus aureus 642A; settings: BHI agar, 20-24 h, read-out: MIC
Outline: as §2

[27] = test system: Staphylococcus aureus NCTC 10649; settings: NCTC10649, BHI agar, 20-24 h, read-out: MIC
Outline: as §2

[28] = test system: Staphylococcus aureus CMX 503A; settings: Staphylococcus aureus, CMX503A, 24 h, BHI agar, 20-24 h, read-out: MIC
Outline: as §1

[29] = test system: Staphylococcus aureus CMX 686B; settings: CMX686B, BHI agar, 20-24 h, read-out: MIC
Outline: as §1

[30] = test system: Klebsiella pneumoniae ATCC 8045; settings: ATCC8045; Klebsiella pneumoniae ATCC 8045; BHI agar, 20-24 h; read-out: MIC
Outline: as §2

[31] = Burkholderia cepacia, read-out: MIC
[32] = CMX640, Providencia stuartii CMX 640, BHI agar, 20-24 h, read-out: MIC
[33] = ATCC9341, BHI agar, read-out: MIC
[34] = Pseudomonas aeruginosa K799/61, BHI agar, 20-24 h, read-out: MIC
[35] = Enterococcus faecium, ATCC8043, 24 h
[36] = Pseudomonas aeruginosa, BMH10, 24 h
[37] = Pseudomonas aeruginosa, A5007, 24 h

## CC[C@H]1OC(=O)[C@H](C)[C@@H](O[C@H]2C[C@@](C)(OC)[C@@H](NC(N)=O)[C@H](C)O2)[C@H](C)[C@@H](O[C@@H]2O[C@H](C)C[C@H](N(C)C)[C@H]2O)[C@](C)(O)C[C@@H](C)[C@@H]2O[C@@]1(C)C(=O)[C@H]2C [Example 32, (4"S,9S)-4"-[(aminocarbonyl)amino]-9-deoxo-4",11,12-trideoxy-9,12-epoxy-11-oxoerythromycin A]
[1]
  MIC: 0.2 µg/mL (≈ 0.264 µM)
[2]; SPCMX669, Acinetobacter SP CMX 669, BHI agar, 20-24 h, read-out: MIC
  MIC: 100 µg/mL (≈ 132 µM)
[3]
  MIC: 0.2 µg/mL (≈ 0.264 µM)
[4]; [31]
  MIC: > 100 µg/mL
[5]
  MIC: > 100 µg/mL
[6]; [32]
  MIC: > 100 µg/mL
[7]; read-out: MIC
  MIC: 100 µg/mL (≈ 132 µM)
[8]
  MIC: 0.02 µg/mL (≈ 0.0264 µM)
[9]; ATCC13048, read-out: MIC
  MIC: 100 µg/mL (≈ 132 µM)
[10]; [33]
  MIC: 0.05 µg/mL (≈ 0.066 µM)
[11]; read-out: MIC
  MIC: 100 µg/mL (≈ 132 µM)
[12]
  MIC: 0.39 µg/mL (≈ 0.515 µM)
[13]; Pseudomonas aeruginosa A5007, BHI agar, 20-24 h, read-out: MIC
  MIC: > 100 µg/mL
[14]; [34]
  MIC: 0.78 µg/mL (≈ 1.03 µM)
[15]; DC2, read-out: MIC
  MIC: 100 µg/mL (≈ 132 µM)
[16]; read-out: MIC
  MIC: 0.2 µg/mL (≈ 0.264 µM)
[17]; Escherichia coli H560, BHI agar, 20-24 h, read-out: MIC
  MIC: 100 µg/mL (≈ 132 µM)
[18]; [35]
  MIC: 0.2 µg/mL (≈ 0.264 µM)
[19]
  MIC: 0.2 µg/mL (≈ 0.264 µM)
[20]; read-out: MIC
  MIC: 0.78 µg/mL (≈ 1.03 µM)
[21]; Pseudomonas aeruginosa K799/WT, BHI agar, 20-24 h
  MIC: 50 µg/mL (≈ 66 µM)
[22]
  MIC: 0.1 µg/mL (≈ 0.132 µM)
[23]
  MIC: 0.05 µg/mL (≈ 0.066 µM)
[24]
  MIC: 0.05 µg/mL (≈ 0.066 µM)
[25]
  MIC: 0.2 µg/mL (≈ 0.264 µM)
[26]
  MIC: 0.1 µg/mL (≈ 0.132 µM)
[27]
  MIC: 0.1 µg/mL (≈ 0.132 µM)

## CC[C@H]1OC(=O)[C@H](C)[C@@H](O[C@H]2C[C@@](C)(OC)[C@@H](O)[C@H](C)O2)[C@H](C)[C@@H](O[C@@H]2O[C@H](C)C[C@H](N(C)C)[C@H]2O)[C@](C)(OC)C[C@@H](C)[C@@H]2O[C@@]1(C)[C@@H](O)[C@H]2C [Example 28A]
[1]
  MIC: 0.2 µg/mL (≈ 0.273 µM)
[2]; Acinetobacter, SPCMX669, 24 h, Acinetobacter SP CMX 669, BHI agar, 20-24 h
  MIC: 6.2 µg/mL (≈ 8.47 µM)
[3]
  MIC: 0.2 µg/mL (≈ 0.273 µM)
[4]; Burkholderia cepacia, 2961, 24 h
  MIC: > 100 µg/mL
[5]
  MIC: 0.2 µg/mL (≈ 0.273 µM)
[6]; Providencia stuartii, CMX640, 24 h
  MIC: > 100 µg/mL
[7]; Escherichia coli, 24 h
  MIC: 25 µg/mL (≈ 34.2 µM)
[8]
  MIC: 0.02 µg/mL (≈ 0.0273 µM)
[9]; ATCC13048, 24 h
  MIC: 50 µg/mL (≈ 68.3 µM)
[10]; [33]
  MIC: 0.05 µg/mL (≈ 0.0683 µM)
[11]; [36]
  MIC: 50 µg/mL (≈ 68.3 µM)
[12]
  MIC: 0.2 µg/mL (≈ 0.273 µM)
[13]; [37]
  MIC: > 100 µg/mL
[14]; [34]
  MIC: 0.78 µg/mL (≈ 1.07 µM)
[15]; Escherichia coli, DC2, 24 h
  MIC: 25 µg/mL (≈ 34.2 µM)
[16]; Staphylococcus aureus, 45, 24 h
  MIC: 3.1 µg/mL (≈ 4.24 µM)
[17]; Escherichia coli, H560, 24 h, Escherichia coli H560, BHI agar, 20-24 h
  MIC: 25 µg/mL (≈ 34.2 µM)
[18]; ATCC8043, Enterococcus faecium ATCC 8043, BHI agar, 20-24 h, read-out: MIC
  MIC: 0.05 µg/mL (≈ 0.0683 µM)
[19]
  MIC: 0.1 µg/mL (≈ 0.137 µM)
[20]; Streptococcus, 2548INDUC, 24 h
  MIC: 3.1 µg/mL (≈ 4.24 µM)
[21]
  MIC: > 100 µg/mL
[22]
  MIC: 0.2 µg/mL (≈ 0.273 µM)
[23]
  MIC: 0.02 µg/mL (≈ 0.0273 µM)
[24]
  MIC: 0.05 µg/mL (≈ 0.0683 µM)
[25]
  MIC: 0.2 µg/mL (≈ 0.273 µM)
[26]
  MIC: 0.2 µg/mL (≈ 0.273 µM)
[27]
  MIC: 0.2 µg/mL (≈ 0.273 µM)

## CC[C@H]1OC(=O)[C@H](C)[C@@H](O[C@H]2C[C@@](C)(OC)[C@H](N)[C@H](C)O2)[C@H](C)[C@@H](O[C@@H]2O[C@H](C)C[C@H](N(C)C)[C@H]2O)[C@](C)(O)C[C@@H](C)[C@@H]2O[C@@]1(C)C(=O)[C@H]2C [Example 8, (4"R,9S)-4"-Amino-9-deoxo-4",11,12-trideoxy-9,12-epoxy 11-oxoerythromycin A]
[28]
  MIC: 0.2 µg/mL (≈ 0.28 µM)
[29]
  MIC: 0.2 µg/mL (≈ 0.28 µM)
[1]
  MIC: 0.1 µg/mL (≈ 0.14 µM)
[2]; Acinetobacter, SPCMX669, 24 h
  MIC: 6.2 µg/mL (≈ 8.67 µM)
[3]
  MIC: 0.2 µg/mL (≈ 0.28 µM)
[4]; [31]
  MIC: > 100 µg/mL
[5]; Staphylococcus aureus A5177, BHI agar, 20-24 h
  MIC: 0.39 µg/mL (≈ 0.546 µM)
[6]; [32]
  MIC: > 100 µg/mL
[30]
  MIC: 100 µg/mL (≈ 140 µM)
[7]; read-out: MIC
  MIC: 100 µg/mL (≈ 140 µM)
[8]
  MIC: 0.01 µg/mL (≈ 0.014 µM)
[9]; ATCC13048, read-out: MIC
  MIC: > 100 µg/mL
[10]; Micrococcus luteus, ATCC9341, 24 h, BHI agar
  MIC: 0.02 µg/mL (≈ 0.028 µM)
[11]; [36]
  MIC: 100 µg/mL (≈ 140 µM)
[12]
  MIC: 0.2 µg/mL (≈ 0.28 µM)
[13]; [37]
  MIC: > 100 µg/mL
[14]; Pseudomonas aeruginosa, K799/61, 24 h
  MIC: 0.78 µg/mL (≈ 1.09 µM)
[15]; DC2, read-out: MIC
  MIC: 100 µg/mL (≈ 140 µM)
[16]; read-out: MIC
  MIC: 0.2 µg/mL (≈ 0.28 µM)
[17]; Escherichia coli, H560, 24 h
  MIC: 25 µg/mL (≈ 35 µM)
[18]; [35]
  MIC: 0.05 µg/mL (≈ 0.0699 µM)
[19]
  MIC: 0.05 µg/mL (≈ 0.0699 µM)
[20]; Streptococcus, 2548INDUC, 24 h
  MIC: 0.39 µg/mL (≈ 0.546 µM)
[21]
  MIC: > 100 µg/mL
[22]
  MIC: 0.2 µg/mL (≈ 0.28 µM)
[23]
  MIC: 0.05 µg/mL (≈ 0.0699 µM)
[24]
  MIC: 0.02 µg/mL (≈ 0.028 µM)
[25]
  MIC: 0.2 µg/mL (≈ 0.28 µM)
